Data set [1] can be described thus: Neutral red cell viability assay in hiPSC. Format: cell-based, human. Conditions: human, hiPSC (DF6-9-9T) cells; 72 hours after start of treatment; both confluent and sub-confluent cells; 2.5 μM; read-out: viable cells remaining. On the procedure:
(§1) Neutral red assays for cell viability were performed as previously described. In vitro cell death was determined using SYTOX® Green nucleic acid stain (Life Technologies). Briefly, cells were incubated in 5 μM SYTOX® Green for 30 minutes at 37° C. in a humidified cell incubator with 5% CO2. […] Imaging of cell viability was performed using Live/Dead® Viability/Cytotoxicity Kit, for mammalian cells (Life Technologies). Cells were stained for 20 minutes at room temperature with 4 μM Calcein AM to detect viable cells and 2 μM Ethidium Homodimer 1 to detect cells with compromised membranes. […] Imaging was performed with a Nikon Ti-U inverted microscope.

The test system of another data set is hiPSC (DF6-9-9T). Briefly: Neutral red cell viability assay in hiPSC. Conditions: for LD50: 24 hour pulse treatment, viability 72 hours after treatment initiation. It is filed as cell-based, human. On the procedure: as §1
Data set [2] deals with mesenchymal stem cells, fibroblasts, retinal pigmented epithelial cells, hiPSC-derived cardiomyocytes, specified hepatic endoderm cells, neural progenitors. Format: cell-based. To be noted: 2.5 μM for 72 hours. The protocol:
(C) Human iPSC-derived neural progenitors were treated with 2.5 μM for 72 hours and assessed by MTT assay (top; day 10 and day 12 progenitors) and immunofluorescence (bottom; day 12 progenitors shown).
Viability measurements were consistent with these visual observations. See data for cardiomyocytes, neural progenitors, and fibroblasts in FIGS. 8B-C). […] See Boheler et al., Stem Cell Reports 3, 185-203 (2014).

Data set [3] has as its system PAX6 positive neural progenitor cells. It is filed as cell-based. An excerpt: (§2) Data expressed as mean+S.D. (n=4); p<0.05, **p<0.01, ***p<0.001. […] Data expressed as mean+S.D. (n=4), *p<0.05, **p<0.01, ***p<0.001.
Data set [4] relates to sub-confluent hiPSC. Briefly: Glucose uptake assay ([3H]2-deoxyglucose). It is filed as cell-based, human. On the procedure: For 1 hour treatment, cells were placed in Krebs-Ringer Hepes (KRH) containing treatment at 37° C. in a humidified cell incubator with 5% CO2. For 15, 18, and 24 hour treatments, cells were treated in E8 medium for 14, 17, and 23 hours, respectively, at which point media was changed to KRH buffer containing specific treatment for 1 hour. After specified treatment time, glucose uptake was performed with 0.5 μCi [^3H]2-deoxyglucose for 5 min at 37° C. as previously described. Uptake data were normalized to protein concentration measured with Lowry method.

The next data set concerns ARPE-19. The data set is described as follows: Viability and morphology of retinal pigmented epithelial cells. Format: cell-based.
From the text: as §2

The next data set concerns human fibroblasts. Briefly: Neutral red viability assay in fibroblasts. Format: cell-based. To be noted: 24 hour treatment, 100 μM.
Data set [5] has as its system sub-confluent hiPSC. Briefly: Cleaved caspase-3/7 fluorescence based assay. Format: cell-based, human. To be noted: after initiation of treatment; 2.5 μM STF-31, 30 μM WZB117.
Data set [6] deals with hiPSC. Briefly: Live/dead staining (calcein AM / ethidium homodimer-1). It is filed as cell-based, human. On the procedure:
In Vitro Toxicity Assays: Treatment with small molecules or glucose deprivation was initiated in hESC or hiPSC at 24 and 96 h post-plating and in vitro toxicity assays were performed at specified treatment endpoints 24-96 hours after treatment initiation. […] Neutral red assays for cell viability were performed as previously described. In vitro cell death was determined using SYTOX® Green nucleic acid stain (Life Technologies). Briefly, cells were incubated in 5 μM SYTOX® Green for 30 minutes at 37° C. in a humidified cell incubator with 5% CO2. Percent cell viability was determined by normalizing to replicate cells incubated with 120 μM digitonin (Sigma-Aldrich) and 5 μM SYTOX® Green. Imaging of cell viability was performed using Live/Dead® Viability/Cytotoxicity Kit, for mammalian cells (Life Technologies). Cells were stained for 20 minutes at room temperature with 4 μM Calcein AM to detect viable cells and 2 μM Ethidium Homodimer 1 to detect cells with compromised membranes. Representative images of alterations in cell morphology were acquired on confluent hPSC 24-72 hours after treatment initiation. Imaging was performed with a Nikon Ti-U inverted microscope.

The test system of data set [7] is hiPSC. Briefly: Nucleotide pool measurements (HPLC). It is filed as cell-based, human. The protocol:
Nucleotide Pool Measurements: ATP, ADP, AMP, and NAD^+ were extracted using perchloric acid precipitation and analyzed using HPLC, following a previously published method. ATP, ADP, AMP and NAD^+ peaks were measured for each sample, compared with the standards, and normalized to protein levels.

[8] abbreviates: short term treatment (24 hours), 2.5 μM.

Data on 1 compound can be found in patent US11959096B2, “Methods for selective inhibition of pluripotent stem cells” (THE MEDICAL COLLEGE OF WISCONSIN, INC., priority 2014, dated 2024).

As to `CC(C)(C)c1ccc(S(=O)(=O)NCc2ccc(C(=O)Nc3cccnc3)cc2)cc1` [STF-31, 4-[[[[4-(1,1-Dimethylethyl)phenyl]sulfonyl]amino]methyl]-N-3-pyridinyl-benzamide], the viability at 72 h, 2.5 μM in data set [1] is less than 2%. Further, the LD50 with hiPSC (DF6-9-9T) (confluent hiPSC) came to 1.78 µM; in the data set on hiPSC (DF6-9-9T) (sub-confluent hiPSC), 1.35 µM. Further, the “effect of increasing concentration on time of significant toxicity” value in the data set with hiPSC (DF6-9-9T) (concentrations up to 100 μM, neutral red) is listed as “did not accelerate the time”. In addition, the “median lethal dose (LD50)” value with hiPSC (DF6-9-9T) (confluent hiPSC, 48 hours after continuous treatment, neutral red) is listed as 182 nM. In the data set on hiPSC (DF6-9-9T) (data not shown), the “minimal treatment time to achieve complete toxicity of hPSC” value was 24 h. In addition, the “visible changes in morphology or cell death” value in data set [2] is given as “None of these cell types exhibited visible changes in morphology or obvious cell death”. Also, the “viability (MTT) and immunofluorescence compared with controls” value in data set [3] (2.5 μM for 72 hours, day 10 and day 12 progenitors) is listed as “indistinguishable from controls”. In addition, the toxicity result (in [3] (setting [8]); in the data set on ARPE-19 (setting [8])) was “does not result in significant toxicity” in each case. In addition, the “first time point with decrease in glucose uptake” value in the data set on sub-confluent hiPSC [4] (2.5 μM STF-31) was determined as 18 h. For the same compound, the “decrease in glucose uptake” value in the data set with sub-confluent hiPSC [4] (1 hour of treatment, 2.5 μM STF-31, 30 μM WZB117) was “did not alter glucose uptake”. The “ARPE cell morphology or viability” value in the data set with ARPE-19 (2.5 μM for up to 72 hours) was “no adverse effects”. Moreover, the cell viability result in the data set on ARPE-19 (treatment time extended to 72 hours, data not shown) is “did not result in a decrease in cell viability”. Also, the “reduction of fibroblast viability” value with human fibroblasts is recorded as 30%. Besides, in the data set with sub-confluent hiPSC [5], the “time of induction of caspase-3/7 activity” value turned out to be 24 h. Moreover, the live/dead staining result was “small patches of live cells remained” with hiPSC [6] (48 hours, 2.5 μM STF-31) and “not visible” with hiPSC [6] (72 hours, confluent, 2.5 μM STF-31, 30 μM WZB117, 20 μM PluriSIn). Besides, the “time until ATP levels decrease” value with hiPSC [7] (2.5 μM STF-31) worked out at 18 h. The “NAD+ levels” value in the data set on hiPSC [7] (2.5 μM STF-31, by 3 hours) is −50%; in the data set with hiPSC [7] (2.5 μM STF-31, by 18 hours) it was less than 1%.
